settings: not given

SMILES	log10 Koa	log10 vapour pressure (mmHg)	melting point	boiling point	log10 Henry constant (atm·m³/mol)	ready biodegradability	log10 Koc (L/kg)	log10 biodegradation half-life (days)
Clc1ccc(C(c2ccccc2Cl)C(Cl)(Cl)Cl)cc1 (centres undefined)	9.45	-5.87						
c1ccc2c(c1)nnc1ccccc12			158 °C					
CC(C)(C)C(=O)CCl			-13 °C	172 °C				
CC(C)(O)CCSc1ccc(S(N)(=O)=O)cc1			140 °C					
CC(=O)OC[C@H]1O[C@@](COC(C)=O)(O[C@H]2O[C@H](COC(C)=O)[C@@H](OC(C)=O)[C@H](OC(C)=O)[C@H]2OC(C)=O)[C@@H](OC(C)=O)[C@@H]1OC(C)=O			86.5 °C					
CC(=O)Nc1ccccc1[N+](=O)[O-]			94 °C					
CC1CCCC(C)C1 (centres undefined)		1.3		122 °C				
CC(Cl)C(=O)O (centres undefined)				185 °C				
Cc1cnc(C)cn1			15 °C	155 °C				
CCOC(=O)CNc1ccccc1			58 °C	274 °C				
Clc1ccc(-c2c(Cl)c(Cl)c(Cl)c(Cl)c2Cl)c(Cl)c1Cl					-4.96			
CCOC(=O)NP(=O)(N1CC1)N1CC1			89 °C					
Fc1c(Cl)c(F)c(Cl)c(F)c1Cl				198 °C				
COC(=O)Nc1cccc(C)c1						readily biodegradable		
C=CC1CNC(=S)O1 (centres undefined)			50 °C					
O=C(C(=O)c1cc(Br)ccc1O)c1cc(Br)ccc1O			212 °C					
CCCCOC(=O)/C=C\C(=O)OCCCC		-3.21	-85 °C	281 °C				
CCOc1ccc(NC(C)=O)cc1	9.59	-6.16	138 °C	244 °C		not readily biodegradable		
CC(=O)Nc1ccccc1Cl			89 °C				1.58	
O=C(O)c1ccc(F)c(F)c1			123 °C					
CCOc1cccc(C=O)c1				246 °C				
C=C(Cl)C(=O)O			66 °C					
O=C(O)CC=Cc1ccccc1			87 °C	302 °C				
CCOc1ccc(NC(=O)CC(C)O)cc1 (centres undefined)			160 °C					
CC(=O)CC(=O)C(F)(F)F				106 °C				

SMILES	log10 Koa	log10 vapour pressure (mmHg)	melting point	boiling point	log10 Henry constant (atm·m³/mol)	ready biodegradability	log10 Koc (L/kg)	log10 biodegradation half-life (days)
COc1cc(N)c2c(c1N)C(=O)c1ccccc1C2=O			242 °C					
NC[C@H](O)[C@@H](O)[C@@H](O)[C@H](O)CO			127 °C					
C[C@]12C[C@H]3S[C@H]3C[C@@H]1CC[C@@H]1[C@@H]2CC[C@]2(C)[C@@H](O)CC[C@@H]12			127 °C					
Nc1ccc2cc3ccc(N)cc3nc2c1			285 °C					
O=C(O)c1cc(Cl)ccc1O			172 °C					
c1cc2cccc3c4cccc5cccc(c(c1)c23)c54		-8.28	274 °C			not readily biodegradable		2.95
COCCO		0.978		124 °C	-6.48	readily biodegradable		
Nc1ccc(Cl)c(Cl)c1Cl			73 °C	292 °C			2.6	
CCOC(=O)NCc1ccccc1			49 °C	230 °C				
CC(C)CCCCCCCCCCCCCCC(=O)O						readily biodegradable		
C=Cc1ccc(CC)cc1		-0.0246	-49.7 °C	192 °C		not readily biodegradable		
CCCCCCCCCCCCCCCCCCN=C=O			20 °C	300 °C		not readily biodegradable		
CCCCCCSCCCCCC				230 °C				
CCC	0.97	3.85	-188 °C	-42.1 °C		readily biodegradable		
C#CCCCO				154 °C				
CC(C)CCCl			-104 °C	98.9 °C				
CCCCCCCCCN		-0.556	-1 °C	202 °C				
Cc1ccc(O)c(N)c1			136 °C					
FC(F)(F)c1cccc(Br)c1			1 °C	152 °C				
CC1=CC(=O)C(C(C)C)CC1 (centres undefined)				233 °C				
CCOC(=O)CC	3.15	1.55	-73.9 °C	99.1 °C				
Cc1cc(Cl)ccc1N			30.3 °C	244 °C		not readily biodegradable		
CCC(C)(O)CC		0.745	-23.6 °C	122 °C				
CC(=O)Oc1cccc2c1C(=O)c1c(OC(C)=O)cc(C(=O)O)cc1C2=O			218 °C					
CCOc1ccc2c(c1)C(C)=CC(C)(C)N2						not readily biodegradable		

SMILES	log10 Koa	log10 vapour pressure (mmHg)	melting point	boiling point	log10 Henry constant (atm·m³/mol)	ready biodegradability	log10 Koc (L/kg)	log10 biodegradation half-life (days)
N[C@@H](Cc1cc(I)c(O)c(I)c1)C(=O)O			213 °C					
CCCCC1CCC(OC(=O)C2CCC(CCCC)CC2)CC1 (centres undefined)						readily biodegradable		
CC/C=C/C(C)C			-142 °C	85.9 °C				
O=C(O)C(F)(F)C(F)(F)C(F)(F)C(=O)O			80 °C					
Clc1cc2ccc(Cl)c(Cl)c2cc1Cl	8.34							
COC(=O)c1ccc2c(c1)OCO2			53 °C					
c1ccc(C2(N3CCCCC3)CCCCC2)cc1			46.5 °C					
Cl[Si](Cl)(c1ccccc1)c1ccccc1				305 °C		not readily biodegradable		
CC1(C)CC1			-109 °C	20.6 °C				
c1ccc(CCc2ccccc2)cc1		-2.14	52.5 °C	284 °C		readily biodegradable		
COc1ccc(C2C(=O)c3ccccc3C2=O)cc1			156 °C					
CC(C)=C1OC(=O)C1(C)C			-18 °C	170 °C				
CC(=S)Nc1ccccc1			77.5 °C					
C=CC/C=C/C/C=C/C/C=C/C						not readily biodegradable		
O=C=Nc1ccccc1[N+](=O)[O-]			41 °C					
CC(=O)OCC(=O)[C@@]12N=C(C)O[C@@H]1C[C@H]1[C@@H]3CCC4=CC(=O)C=C[C@]4(C)[C@H]3[C@@H](O)C[C@@]12C			256 °C					
O=[N+]([O-])Cc1ccccc1				226 °C				
CN(C)CC/C=C1\c2ccccc2CSc2ccccc21			56 °C					
C=CC(=O)NC(C)(C)C			128 °C					
C[C@@H]1C[C@@H]([C@H](O)CC2CC(=O)NC(=O)C2)C(=O)[C@@H](C)C1			119 °C			readily biodegradable		
O=C(O)C1CCNCC1			336 °C					
C[C@]12CC[C@@H](O)C[C@@H]1CC[C@@H]1[C@@H]2CC[C@]2(C)C(=O)CC[C@@H]12			182 °C					
COc1ccc(OC)cc1			59 °C	213 °C		readily biodegradable		
CC(=O)CC(=O)OCCCl				198 °C				
C=CCC(C)C(C)C (centres undefined)				109 °C				

SMILES	log10 Koa	log10 vapour pressure (mmHg)	melting point	boiling point	log10 Henry constant (atm·m³/mol)	ready biodegradability	log10 Koc (L/kg)	log10 biodegradation half-life (days)
CCCCCCCCCCCCCCCCCCC1CO1 (centres undefined)						readily biodegradable		
CCOC(=O)CN(C(=O)CCl)c1c(CC)cccc1CC			49.5 °C				2	
CCOC(=O)C(C(C)=O)C(=O)OCC				232 °C				
C#CCOC(=O)[C@@H](C)Oc1ccc(Oc2ncc(Cl)cc2F)cc1		-7.62	59.5 °C					
ON=Cc1ccncc1			132 °C					
COC(=O)c1ccccc1C				215 °C				
COc1cccc(C(=O)NN(C(=O)c2cc(C)cc(C)c2)C(C)(C)C)c1C			204 °C					
CCCCCCCC/C=C\CCCCCCCC(=O)[O-].[Na+]			234 °C					
CN(CCCN)CCCN				232 °C				
NC(=O)COc1ccccc1			102 °C					
NS(=O)(=O)c1ccc(SCCCO)c(Cl)c1			127 °C					
CSC		2.7	-98.3 °C	37.3 °C	-2.79			
O=C(CCl)OC(=O)CCl		-1.43	46 °C	203 °C				
CCOC(=O)/C=C1/SC(N2CCCCC2)C(=O)N1C (centres undefined)			140 °C					
C=CC(C)(O)CC(C)C (centres undefined)				146 °C				
c1ccc2c(c1)ccc1[nH]c3ccccc3c12			134 °C	448 °C				
CC1=CC[C@@H]2[C@H]3[C@@H](C(C)C)CC[C@]2(C)[C@@H]13				248 °C				
Brc1cccc(-c2ccccc2)c1				300 °C				
CCCCCCCCCCOC(C)=O			-15 °C	244 °C				
N#Cc1ccc(-c2ccc(C#N)cc2)cc1			238 °C					
Nc1ccc2ccc3ccccc3c2c1			143 °C					
Cc1ncc([N+](=O)[O-])n1C			138 °C					
CC(C)(C)SSC(C)(C)C			-5 °C					
O=C(O)CCCCCCCBr			38.5 °C					
CCCCCCCCCCCCCCCCCCOC(C)=O			34.5 °C					

SMILES	log10 Koa	log10 vapour pressure (mmHg)	melting point	boiling point	log10 Henry constant (atm·m³/mol)	ready biodegradability	log10 Koc (L/kg)	log10 biodegradation half-life (days)
Brc1cncc2ccccc12			41.5 °C	282 °C				
Cn1c([N+](=O)[O-])cnc1COC(N)=O			168 °C					
COCCOC		1.68	-58 °C	85 °C				
CC(C)CCOc1ccc(NC(=S)Nc2ccc(OCCC(C)C)cc2)cc1			146 °C					
Nc1cccc(S(=O)(=O)c2cccc(N)c2)c1			172 °C			not readily biodegradable		
Clc1ccc(-c2cc(Cl)ccc2Cl)cc1	7.92	-3.4			-3.72			
CC(C)(CC(=O)O)c1ccccc1			60 °C					
CC(O)C1CCCCC1 (centres undefined)				189 °C				
CCCN=C=S				153 °C				
Nc1cccc2c(N)cccc12			190 °C			not readily biodegradable		
CCc1ccc(O)c(C(C)(C)C)c1		-1.74						
CN1CCN(C)CC1				131 °C				
CC(=O)OC(C)CC(C)C (centres undefined)		0.602	-64 °C	148 °C		readily biodegradable		
O=Cc1c(F)c(F)cc(F)c1F				178 °C				
Nc1cccc(N)c1		-2.68	63.5 °C	285 °C		not readily biodegradable		
Cc1cc(O)ccc1Br			63.5 °C					
c1ccc(-c2ncoc2-c2ccccc2)cc1			44 °C					
CC1(C)[C@H]2CC=C(CO)[C@@H]1C2				222 °C				
C=CC=CC#N			-60 °C	136 °C				
Clc1ccccc1C(Cl)(Cl)Cl		-1.3	29.4 °C	264 °C				
COC(=O)c1ccccc1S(=O)(=O)NC(=O)Nc1nc(OC(F)F)cc(OC(F)F)n1			196 °C				1.08	
O=C1CCc2cc(OCCCCc3nnnn3C3CCCCC3)ccc2N1			160 °C					
CC(=O)OCCN(CCOC(C)=O)c1ccc(N=Nc2nc3ccc(Cl)cc3s2)c(NC(=O)c2ccccc2)c1						not readily biodegradable		
CC=CC#N		1.5		120 °C				

same assay, conditions: fish

SMILES	log10 biotransformation half-life (days)	log10 BCF
Clc1ccc(C(c2ccccc2Cl)C(Cl)(Cl)Cl)cc1 (centres undefined)	1.71	
Clc1ccc(-c2c(Cl)c(Cl)c(Cl)c(Cl)c2Cl)c(Cl)c1Cl	2.54	
CCOc1ccc(NC(C)=O)cc1	-0.55	1.48
c1cc2cccc3c4cccc5cccc(c(c1)c23)c54	-0.06	
Nc1ccc(Cl)c(Cl)c1Cl	-0.27	2
C=Cc1ccc(CC)cc1		2.69
Cc1cc(Cl)ccc1N		1.54
Clc1ccc(-c2cc(Cl)c(Cl)c(Cl)c2Cl)c(Cl)c1	2.34	
C[C@@H]1C[C@@H]([C@H](O)CC2CC(=O)NC(=O)C2)C(=O)[C@@H](C)C1		0.45
Clc1ccc(-c2cc(Cl)ccc2Cl)cc1	1.91	4.13
Nc1cccc2c(N)cccc12	-0.52	0.65
Nc1cccc(N)c1		0.81

— the OPERA property sets (Mansouri et al. 2018)
